{
  "source": "patent US20250282895A1",
  "about": "“PHARMACEUTICAL COMPOSITIONS OF CHEMOTHERAPEUTIC AGENTS BASED ON BETA-S[…]-AMINO ACID DERIVATIVES” (priority 2021, published 2025)",
  "experiment": "Comparative stability, Formulation 1 (Na3-citrate buffered)",
  "type": "physicochemical",
  "conditions": "Formulation 1, 25° C.",
  "procedure": "The stability of Compound (1c) either as the HCl salt or as the free base was compared to the stability of melphalan HCl and/or bendamustine HCl in various pharmaceutical formulations and at different concentrations and at temperatures of 0° C. or 25° C.\nThe stability of the compounds in the pharmaceutical formulations was determined at concentrations within the range from 0.4 mg/mL to 0.5 mg/mL, from 0.9 mg/mL to 1.1 mg/mL, and from 1.8 mg/mL to 2.1 mg/mL.\nThe amount of the active pharmaceutical ingredient (API) (Compound (1c), melphalan or bendamustine) in the pharmaceutical formulations at different times during storage was determined using HPLC/UV as described in detail for Example 4 and Example 5.\nThe first formulation included a mixture of 57.5 vol-% 1,2-propylene glycol (1,2-PG), 30 vol-% Kolliphor® HS 15 (Solutol®, Macrogol®, BASF AG/SigmaAldrich), and 12.5 vol-% ethanol (EtOH), and the resulting solution was further diluted and adjusted to pH 6.8 using a pH 8.1-8.3 Na3-citrate buffer (51 mM Na3-citrate·2H2O and 73.6 mM NaCl).\nThe pH 8.1-8.3 Na3-citrate buffer was prepared form 1.50 g (5.10 mmol) of Na3-citrate. 2H2O (Na3C6H5O7·2H2O; MW 294.10 g/mol; J. T. Baker, 3650-01) and 0.43 g (7.36 mmol) of sodium chloride (NaCl; MW 58.44 g/mol; SigmaAldrich, S9888) dissolved to 100 mL with double-distilled water (dd-H2O) (Arrowhead). The solution was filtered through a 0.45 μm nylon syringe filter, and the pH of the solution was adjusted to 8.1-8.3 with a saturated aqueous solution of sodium hydrogencarbonate (NaHCO3).\nThe excipient mixture was prepared from 4.77 g (62.7 mmol; 4.6 mL) 1,2-propylene glycol (1,2-PG; MW 76.09 g/mol; d 1.036; Acros Organics, 220870010), 2.52 g (2.40 mL, d 1.05) of melted (15 s microwaving) Kolliphor® HS 15 (BASF AG/SigmaAldrich, 42966), and 0.798 g (17.32 mmol, 1.0 mL) of ethanol (EtOH, MW 46.06 g/mol, d 0.798, KOPTEC, V1016). The clear viscous mixture was warmed to about 40° C. before use (water bath).\nA series of 12 mL glass vials each containing 6.1 mg ([…]) of Compound (1c) mono-hydrochloride salt (corresponding to 5.5 mg of Compound (1c) as the free base) were prepared as described in Example 5 through lyophilization of aliquots of an acidified stock solution.\n(§1) 660 μL (6 vol-%) of pre-warmed excipient mixture were added to the Compound (1c) mono-hydrochloride salt in the vial. Compound (1c) mono-hydrochloride salt was dissolved with gentle heating and vortexing. The viscous solution was further diluted with 10,340 μL (94 vol-%) of pH 8.1-8.3 Na3-citrate buffer to provide 11.0 mL of a clear, colorless formulation with a concentration of 0.5 mg/ml of Compound (1c) as a monohydrochloride salt and a pH of 6-7.\nas §1, with “330” for “660”, “5,170” for “10,340”, “5.5” for “11.0”, “1.0 mg/mL” for “0.5 mg/ml”\nas §1, with “165” for “660”, “2,585” for “10,340”, “2.75” for “11.0”, “2.0” for “0.5”\nThe solutions were placed in glass vials and stored at room temperature (about 25° C.), and the amount of Compound (1c) derived from the mono hydrochloride salt (mono HCl salt) of compound of Formula (1c) was measured at intervals using analytical high pressure liquid chromatography coupled to a UV detector (HPLC/UV) as described in Example 4.",
  "note": "Where a name gives a salt, the structure may show the parent alone.",
  "data": [
    {"smiles": "Cc1ccc(N(CCCl)CCCl)cc1C[C@H](N)CC(=O)O", "note": "[Compound (1c)•HCl, (S)-3-amino-4-(5-(bis(2-chloroethyl)amino)-2-methylphenyl) butanoic acid mono hydrochloride salt]", "values": [
      {"measurement": "% API", "setting": "pH 6.8, 0.5 hours, 0.4-0.5 mg/mL", "value": 79, "unit": "%"},
      {"measurement": "% API", "setting": "pH 6.8, 0.5 hours, 0.9-1.1 mg/mL", "value": 84, "unit": "%"},
      {"measurement": "% API", "setting": "pH 6.8, 0.5 hours, 1.8-2.1 mg/mL", "value": 88, "unit": "%"},
      {"measurement": "% API", "setting": "pH 6.8, 2.0 hours, 0.4-0.5 mg/mL", "value": 52, "unit": "%"},
      {"measurement": "% API", "setting": "pH 6.8, 2.0 hours, 0.9-1.1 mg/mL", "value": 55, "unit": "%"},
      {"measurement": "% API", "setting": "pH 6.8, 2.0 hours, 1.8-2.1 mg/mL", "value": 65, "unit": "%"}
    ]}
  ]
}
